According to the SangsterLogP compilation:
Where a SMILES comes first, the peptide text is derived from it.

Assay: method code SF-AS, from DOI: 10.1002/qsar.19900090302
Settings: pH 7.0

Compound	logD
CC(=O)N[C@@H](Cc1ccc(O)cc1)C(=O)N[C@@H](CC(C)C)C(N)=O (Ac-Tyr-Leu-NH2)	0.32
CC(=O)N[C@@H](C)C(=O)N[C@@H](Cc1ccc(O)cc1)C(=O)N[C@@H](CC(C)C)C(N)=O (Ac-Ala-Tyr-Leu-NH2)	-0.04
CC(=O)N[C@@H](C)C(=O)NCC(=O)N[C@@H](Cc1ccccc1)C(N)=O (Ac-Ala-Gly-Phe-NH2)	-0.71
CC(=O)N[C@@H](Cc1c[nH]c2ccccc12)C(=O)N[C@H](C(N)=O)C(C)C (Ac-Trp-Val-NH2)	0.73
CC(=O)N[C@H](C(=O)N[C@@H](Cc1ccccc1)C(=O)N[C@@H](C)C(N)=O)C(C)C (Ac-Val-Phe-Ala-NH2)	0.06
CC(=O)NC(CC(N)=O)C(=O)NC(Cc1ccccc1)C(N)=O (stereo not drawn) (Ac-Asn-Phe-NH2; configuration not given here)	-1.14
CC[C@H](C)[C@H](NC(C)=O)C(=O)N[C@@H](Cc1ccccc1)C(=O)N[C@@H](C)C(N)=O (Ac-Ile-Phe-Ala-NH2)	0.52
CC(=O)N[C@@H](Cc1ccc(O)cc1)C(=O)N[C@@H](Cc1ccccc1)C(N)=O (Ac-Tyr-Phe-NH2)	0.54
CC(=O)N[C@@H](Cc1ccc(O)cc1)C(=O)N[C@H](C(N)=O)C(C)C	-0.2
CC[C@H](C)[C@H](NC(=O)[C@H](Cc1ccccc1)NC(C)=O)C(=O)NCC(N)=O (Ac-Phe-Ile-Gly-NH2)	0.34
CC(=O)N[C@@H](Cc1c[nH]c2ccccc12)C(=O)N[C@@H](C)C(=O)N[C@@H](C)C(N)=O (Ac-Trp-Ala-Ala-NH2)	-0.31
CC(=O)N[C@@H](Cc1c[nH]c2ccccc12)C(=O)NCC(=O)N[C@@H](Cc1ccccc1)C(N)=O	0.99
CC(=O)N[C@@H](CCC(N)=O)C(=O)N[C@@H](Cc1ccccc1)C(N)=O (Ac-Gln-Phe-NH2)	-1.14
CC(=O)N[C@@H](Cc1ccccc1)C(=O)NCC(=O)N[C@@H](CC(C)C)C(N)=O	0.6
CC(=O)N[C@@H](CC(C)C)C(=O)N[C@@H](CO)C(=O)N[C@@H](Cc1ccccc1)C(N)=O (Ac-Leu-Ser-Phe-NH2)	0.23
CC(=O)N[C@@H](Cc1ccccc1)C(=O)N[C@@H](CCC(N)=O)C(N)=O	-1.03
CC[C@H](C)[C@H](NC(=O)[C@H](Cc1c[nH]c2ccccc12)NC(C)=O)C(=O)NCC(N)=O (Ac-Trp-Ile-Gly-NH2)	0.62
CC(=O)N[C@@H](Cc1c[nH]c2ccccc12)C(=O)N[C@@H](C)C(=O)N[C@H](C(N)=O)C(C)C (Ac-Trp-Ala-Val-NH2)	0.36
CC(=O)N[C@@H](CO)C(=O)N[C@@H](Cc1ccccc1)C(N)=O	-0.79
CC(=O)N[C@@H](Cc1ccccc1)C(=O)NCC(N)=O (Ac-Phe-Gly-NH2)	-0.5
CC(=O)N[C@@H](Cc1ccccc1)C(=O)N[C@H](C(N)=O)C(C)C (Ac-Phe-Val-NH2)	0.43
CC(=O)N[C@@H](C)C(=O)N[C@@H](Cc1ccc(O)cc1)C(=O)N[C@@H](Cc1ccccc1)C(N)=O (Ac-Ala-Tyr-Phe-NH2)	0.26
CC(=O)NCC(=O)N[C@@H](Cc1ccccc1)C(N)=O (Ac-Gly-Phe-NH2)	-0.56

Assay: method code SF-HPLC, from DOI: 10.1002/qsar.19900090302
Settings: pH 7.0

Compound	logD
CC(=O)N[C@@H](C)C(=O)N[C@@H](CC(C)C)C(=O)N[C@H](C(N)=O)C(C)C (Ac-Ala-Leu-Val-NH2)	-0.14
CC[C@H](C)[C@H](NC(=O)[C@@H](NC(=O)[C@@H](NC(C)=O)C(C)C)C(C)C)C(N)=O (Ac-Val-Val-Ile-NH2)	0.49
CC(=O)N[C@@H](CC(C)C)C(=O)N[C@H](C(=O)N[C@@H](CC(C)C)C(N)=O)[C@@H](C)O (Ac-Leu-Thr-Leu-NH2)	0.24
CC(=O)NCC(=O)N[C@@H](C)C(=O)N[C@H](C(N)=O)C(C)C (Ac-Gly-Ala-Val-NH2)	-1.56
CC[C@H](C)[C@H](NC(=O)[C@H](CC(N)=O)NC(C)=O)C(N)=O (Ac-Asn-Ile-NH2)	-1.43
CC[C@H](C)[C@H](NC(=O)[C@@H](NC(=O)[C@H](C)NC(C)=O)C(C)C)C(N)=O	-0.2
CC[C@H](C)[C@H](NC(=O)[C@H](CC(C)C)NC(C)=O)C(N)=O (Ac-Leu-Ile-NH2)	0.68
CC(=O)N[C@H](C(=O)N[C@H](C(N)=O)C(C)C)C(C)C (Ac-Val-Val-NH2)	-0.32
CC[C@H](C)[C@H](NC(=O)[C@@H](NC(C)=O)C(C)C)C(=O)NCC(N)=O (Ac-Val-Ile-Gly-NH2)	-0.45
CC(=O)N[C@@H](CO)C(=O)N[C@H](C(N)=O)C(C)C (Ac-Ser-Val-NH2)	-1.53
CC(=O)NCC(=O)N[C@@H](CC(C)C)C(N)=O	-0.78
CC(=O)N[C@H](C(=O)N[C@H](C(N)=O)C(C)C)[C@@H](C)O (Ac-Thr-Val-NH2)	-1.25
CC(=O)NC(CCC(N)=O)C(=O)NC(CC(C)C)C(N)=O (stereo not drawn) (Ac-Gln-Leu-NH2; configuration not given here)	-1.32
CC[C@H](C)[C@H](NC(C)=O)C(=O)N[C@H](C(N)=O)C(C)C (Ac-Ile-Val-NH2)	0.16
CC(=O)N[C@H](C(=O)N[C@@H](C)C(=O)N[C@H](C(N)=O)C(C)C)C(C)C (Ac-Val-Ala-Val-NH2)	-0.67
CC(=O)NC(CC(N)=O)C(=O)NC(C(N)=O)C(C)C (stereo not drawn) (Ac-Asn-Val-NH2; configuration not given here)	-1.85
CC[C@H](C)[C@H](NC(C)=O)C(=O)N[C@@H](CC(N)=O)C(N)=O (Ac-Ile-Asn-NH2)	-1.41
CC(=O)N[C@H](C(=O)N[C@@H](C)C(=O)N[C@@H](C)C(N)=O)C(C)C	-1.4
CC(=O)NC(CCC(N)=O)C(=O)NC(C(N)=O)C(C)C (stereo not drawn) (Ac-Gln-Val-NH2; configuration not given here)	-1.85
CC[C@H](C)[C@H](NC(=O)[C@@H](NC(C)=O)[C@@H](C)O)C(N)=O (Ac-Thr-Ile-NH2)	-0.86
CC(=O)N[C@H](C(=O)N[C@@H](C)C(N)=O)C(C)C (Ac-Val-Ala-NH2)	-1.14
CC(=O)N[C@@H](C)C(=O)N[C@H](C(N)=O)C(C)C (Ac-Ala-Val-NH2)	-1.13
CC(=O)N[C@@H](C)C(=O)N[C@@H](CC(C)C)C(N)=O (Ac-Ala-Leu-NH2)	-0.54
CC(=O)N[C@@H](CC(C)C)C(=O)N[C@@H](CC(N)=O)C(N)=O	-1.3
CC(=O)N[C@@H](CC(C)C)C(=O)N[C@H](C(N)=O)C(C)C (Ac-Leu-Val-NH2)	0.26
CC(=O)NCC(=O)N[C@H](C(N)=O)C(C)C (Ac-Gly-Val-NH2)	-1.33
CC(=O)NC(C(=O)NC(CCC(N)=O)C(N)=O)C(C)C (stereo not drawn) (Ac-Val-Gln-NH2; configuration not given here)	-1.82
CC(=O)NCC(=O)N[C@@H](CC(C)C)C(=O)NCC(N)=O (Ac-Gly-Leu-Gly-NH2)	-1.23
